{
  "source": "patent US20100062465A1",
  "about": "“Detection of Histone Deacetylase Inhibition” (priority 2006, published 2010)",
  "key": {"[1]": {"tested_on": "PC3 human prostate cancer cells", "test": "WST-1 cell proliferation assay", "type": "cell-based", "experimental": "PC3 human prostate cancer cells were routinely cultured in DMEM/F12 (Gibco NY USA) supplemented with 10% FCS (Hyclone, Utah USA) and 10,000 U/mL penicillin 10,000 μg/mL streptomycin and […] amphtenicin B (Gibco, NY USA) at 37° C. in 5% CO2.\nTo assess the effect on cell proliferation of BLT the colorimetric WST-1 cell proliferation assay (Roche USA) was used and manufacturer instructions followed. Briefly, 20×10^3 cells/well were seeded in 96 well plates. Cells were then treated for 24 hours with BLT at 5 μM, 10 μM, 20 μM, 50 μM, 100 μM, 200 μM, 500 μM, 1 mM, 2 mM, 5 mM and 10 mM or with matched DMSO (1.20,000 to 1.10). Subsequently cells were incubated for 4 hours with the WST-1 cell proliferation reagent and absorbance read at 440 nm using a Tecan Freedom Evo liquid handler equipped with the SAFIRE monochromator-based microplate reader (Tecan U.S., NC, USA).\nNote that controls were treated with DMSO in order to clearly identify effects which are due to the compound being investigated rather than its vehicle (DMSO). FSAHA dose was based on previous findings (Butler L M, Agus D B, Scher H I, et al. Suberoylanilide hydroxamic acid, an inhibitor of histone deacetylase, suppresses the growth of prostate cancer cells in vitro and in vivo. Cancer Res 2000 September 15;60(18):5165-70)."}, "[2]": {"tested_on": "HDAC", "test": "Fluor de Lys fluorometric assay of HDAC activity in PC3 cells", "type": "cell-based, human", "conditions": "for HDAC activity (relative to controls): 24 h", "experimental": "Briefly 20×10^3 cells/well were seeded in 96 well plates and incubated for 24 h with (a) 1 mM BLT (b) FSAHA at 2, 5, 10 μM (c) SAHA at 2, 5, 10 μM (d) FSAHA at 2, 5, 7, 8, 9, 10 μM in the presence of 1 mM BLT (e) FSAHA at 2, 5, 7, 8, 9, 10 μM in the presence of vehicle (DMSO). The Fluor de Lys substrate was then added for 1 h, medium removed, cells rinsed with PBS and incubated for 10 minutes with the Fluor-de-Lys developer, and fluorescence read at 460 nm using the Tecan microplate reader as above. Results were normalized to cell density as determined using the WST-1 assay in the same 96 well plate."}, "[3]": {"tested_on": "PC3 cells", "test": "19F MRS of PC3 cell extracts (intracellular BLT, TFA, FSAHA)", "type": "cell-based, human", "conditions": "for Intracellular BLT level: 24 h", "experimental": "For MRS studies, PC3 cells were treated for 24 h with FSAHA at 2, 5, 7, 8, 9 and 10 μM in the presence of 1 mM BLT or with 1 mM BLT alone. Approximately 1×10^7-1.5×10^7 cells were then extracted using the dual phase extraction method as previously described (Chung Y L, Troy H, Banerji U, et al. Magnetic resonance spectroscopic pharmacodynamic markers of the heat shock protein 90 inhibitor 17-allylamino, 17-demethoxygeldanamycin (17AAG) in human colon cancer models. J Natl Cancer Inst 2003 November 5;95(21):1624-33, Tyagi R K, Azrad A, Degani H, Salomon Y. Simultaneous extraction of cellular lipids and water-soluble metabolites: evaluation by NMR spectroscopy. Magn Reson Med 1996 February;35(2):194-200.47). Briefly, cells were extensively rinsed with ice-cold saline to remove any residual extracellular BLT and medium. Cells were then fixed in 10 ml of ice-cold methanol, scraped off the surface of the culture flask, collected into glass tubes and vortexed. 10 ml of ice-cold chloroform was then added followed by 10 ml of ice-cold de-ionized water. Following phase separation and solvent removal the water-soluble fraction was reconstituted in 250 μl of deuterium oxide (D2O) and 250 μl of DMSO for ^19F MR measurements. To perform the ^31P MR measurement 100 μl of EDTA and 50 μl methylene diphosphonic acid (MDPA) in D2O were added to a final concentration of 10 mM and 0.35 mM respectively. The number of cells extracted was determined by counting a separate flask of cells. ^19F MR spectra of the water-soluble metabolites were recorded as above. Metabolite concentrations were determined by integration and comparison with the area of the external C6F6 reference, normalizing to cell number and correcting for saturation effects. Correction for saturation effects was achieved by also acquiring a quantitative inverse gated fully relaxed spectrum on two different samples and calculating the correction factors which need to be applied to the partially relaxed spectra. It was determined that the T1 relaxation of BLT is 1 s and that of C6F6 is 3 s. The fully relaxed spectrum was therefore acquired using a 90 deg. flip angle and a 15 s relaxation delay (5 times the longest T1). ^31P MR spectra were recorded on an Avance DRX500 Bruker spectrometer (Bruker Biospin Germany) using a 30 deg. flip angle and 3 s relaxation delay. Metabolite concentrations were determined by integration and comparison with the area of the internal MDPA reference, normalizing to cell number and correcting for saturation effects (correction factors were determined as above by acquiring a fully relaxed quantitative spectrum using a 90 deg. flip angle and a 30 s relaxation delay).\nTo monitor the fluorinated metabolites, the lipid phase was reconstituted in 500 μl CDCl3. To monitor the fluorinated metabolites in cellular protein, the protein pellet obtained during cell extraction was dissolved in 1 ml of 0.5 M NaOH and heated to 60° C. for 1 h. Samples were then analyzed by ^19F MRS as above."}, "[4]": {"tested_on": "PC3 cells", "test": "31P MRS of PC3 cell extracts (phosphocholine)", "type": "cell-based, human", "conditions": "24 h", "experimental": "For MRS studies, PC3 cells were treated for 24 h with FSAHA at 2, 5, 7, 8, 9 and 10 μM in the presence of 1 mM BLT or with 1 mM BLT alone. […] The number of cells extracted was determined by counting a separate flask of cells. ^19F MR spectra of the water-soluble metabolites were recorded as above. Metabolite concentrations were determined by integration and comparison with the area of the external C6F6 reference, normalizing to cell number and correcting for saturation effects. Correction for saturation effects was achieved by also acquiring a quantitative inverse gated fully relaxed spectrum on two different samples and calculating the correction factors which need to be applied to the partially relaxed spectra. It was determined that the T1 relaxation of BLT is 1 s and that of C6F6 is 3 s. The fully relaxed spectrum was therefore acquired using a 90 deg. flip angle and a 15 s relaxation delay (5 times the longest T1). ^31P MR spectra were recorded on an Avance DRX500 Bruker spectrometer (Bruker Biospin Germany) using a 30 deg. flip angle and 3 s relaxation delay. […]"}, "[5]": {"conditions": "PC3 control cells, 1 mM BLT alone"}, "[6]": {"conditions": "2 μM in the presence of 1 mM BLT"}, "[7]": {"conditions": "5 μM in the presence of 1 mM BLT"}, "[8]": {"conditions": "10 μM in the presence of 1 mM BLT"}, "[9]": {"conditions": "PC3 cells, 10 μM FSAHA in the presence of 1 mM BLT"}},
  "note": "“And” between values parts separate entries of the source, which are not always exact repeats. Equal entries are not always repeated. Structures can show the parent of a compound that is named as a salt.",
  "data": [
    {"molecule": "CC(C)(C)OC(=O)N[C@@H](CCCCNC(=O)C(F)(F)F)C(=O)O", "note": "[BLT, Boc-Lys-TFA-OH]", "values": [
      {"measurement": "Effect on cell proliferation compared to matched DMSO controls", "setting": "[1]; 5 μM to 10 mM, 24 hours", "value": "did not significantly affect cell proliferation"},
      {"measurement": "activity at 1000 µM", "setting": "[1]; Homo sapiens, PC-3, 24-hour treatment with 1 mM BLT, read-out: Cell numbers, % of controls", "value": "95 ± 4", "unit": "%"},
      {"measurement": "HDAC activity levels relative to DMSO-treated controls", "setting": "[2]; 24 hours, 1 mM", "value": "102±9", "unit": "%"},
      {"measurement": "Intracellular BLT level", "setting": "[3]; PC3 cells, 1 mM BLT alone (control cells)", "value": "14±4 fmol/cell and 14 fmol/cell"},
      {"measurement": "Intracellular TFA concentration", "setting": "[3]; [5]", "value": "1.1±0.6", "unit": "fmol/cell"},
      {"measurement": "Phosphocholine (PC) level", "setting": "[4]; [5]", "value": "7±1 fmol/cell and 7 fmol/cell"}
    ]},
    {"molecule": "O=C(CCCCCCC(=O)Nc1ccc(F)cc1)NO", "note": "[FSAHA, 4-Fluorosuberanilohydroxamic acid]", "values": [
      {"measurement": "Cell proliferation relative to control", "setting": "[1]; 2 μM", "value": "87±5", "unit": "%"},
      {"measurement": "Cell proliferation relative to control", "setting": "[1]; [6]", "value": "86±1", "unit": "%"},
      {"measurement": "Cell proliferation relative to control", "setting": "[1]; 5 μM", "value": "79±3", "unit": "%"},
      {"measurement": "Cell proliferation relative to control", "setting": "[1]; [7]", "value": "77±7", "unit": "%"},
      {"measurement": "Cell proliferation relative to control", "setting": "[1]; 10 μM", "value": "66±6", "unit": "%"},
      {"measurement": "Cell proliferation relative to control", "setting": "[1]; [8]", "value": "63±2", "unit": "%"},
      {"measurement": "HDAC activity (relative to controls)", "setting": "[2]; 2 μM", "value": "93±16", "unit": "%"},
      {"measurement": "HDAC activity (relative to controls)", "setting": "[2]; [6]", "value": "88±12", "unit": "%"},
      {"measurement": "HDAC activity (relative to controls)", "setting": "[2]; 5 μM", "value": "58±14", "unit": "%"},
      {"measurement": "HDAC activity (relative to controls)", "setting": "[2]; [7]", "value": "69±9", "unit": "%"},
      {"measurement": "HDAC activity (relative to controls)", "setting": "[2]; 10 μM", "value": "41±8", "unit": "%"},
      {"measurement": "HDAC activity (relative to controls)", "setting": "[2]; [8]", "value": "53±5% and 53%"},
      {"measurement": "Average increase of intracellular BLT", "setting": "[3]; 10 μM FSAHA-treated PC3 cells", "value": 18, "unit": "fmol/cell"},
      {"measurement": "Intracellular TFA concentration", "setting": "[3]; [9]", "value": "1±1", "unit": "fmol/cell"},
      {"measurement": "Intracellular BLT level", "setting": "[3]; [9]", "value": "32±4 fmol/cell and 32 fmol/cell"},
      {"measurement": "Phosphocholine (PC) level", "setting": "[4]; [9]", "value": "16±2 fmol/cell and 16 fmol/cell and 15 fmol/cell"}
    ]}
  ]
}
